The record followed here is patent US6777414B1, “Nitrogen-containing heterocyclic compounds and benamide compounds and drugs containing the same” (Meiji Seika Kaisha, Ltd., priority 1999, dated 2004).

Some results are limits rather than exact numbers.

Series [1] deals with Hep G2 cells. Nature of the series: Triglyceride biosynthesis inhibitory activity (14C-acetic acid incorporation into triglyceride). The series is classed as cell-based. The settings on record: Homo sapiens, HepG2, test compound 1 μM. As for the experimental part: Test 1: Triglyceride Biosynthesis Inhibitory Activity
The triglyceride biosynthesis inhibitory activity of compounds according to the present invention was examined using human hepatoma-derived cell line, Hep G2.
The test was carried out by partially modifying the method of Nagata et al. (Biochem. Pharmacol., 40, 843 (1990)) and the method of Furukawa et al. (J. Biol. Chem., 267, 22630 (1992)). Specifically, Hep G2 cells were cultivated in a Dulbecco modified Eagles's medium (DMEM) containing 10% fetal calf serum (FCS), 100 units/ml penicillin, and 100 μg/ml streptomycin on a 96-well plate. Thereafter, the medium was replaced by DMEM containing 1% bovine serum albumin. At the same time, the test compound was added to a final concentration of 1 μM, followed by cultivation, or cultivation was carried out without the addition of the test compound. Three hours after the replacement of the medium, ^14C-acetic acid was added to a final concentration of 1 mM, and cultivation was continued for additional 4 hours. After the cells were washed with a phosphate buffer (pH 7.5) containing 150 mM sodium chloride, lipids within the cells were extracted with n-butanol. After the extraction, the extract was evaporated to dryness under a nitrogen stream. The solid obtained by the evaporation to dryness was dissolved in a minor amount of chloroform. The solution was developed by thin layer chromatography (development solvent: petroleum ether/diethyl ether/acetic acid=90/15/3) to separate a ^14C-triglyceride fraction, and the amount of ^14C-triglyceride produced was then determined with a liquid scintillation counter (Beckman, LS-6500).
The inhibition (%) of biosynthesis of triglyceride was calculated by the following equation.
Inhibition of biosynthesis of triglyceride (%)={1−(amount of ^14C-triglyceride produced in the presence of test compound)/(amount of ^14C-triglyceride produced in the absence of test compound)}×100

Series [2] has as its system Hep G2 cells. Nature of the series: Apolipoprotein B secretion inhibitory activity (sandwich ELISA of culture supernatant). As to conditions: Homo sapiens, HepG2, test compound 1 μM. The series is classed as cell-based. As for the experimental part:
Test 2: Apolipoprotein B Secretion Inhibitory Activity
The apolipoprotein B secretion inhibitory activity of compounds according to the present invention was examined using human hepatoma-derived cell line, Hep G2.
The test was carried out by partially modifying the method of Nagata et al. (Biochem. Pharmacol., 40, 843 (1990)) and the method of Furukawa et al. (J. Biol. Chem., 267, 22630 (1992)). Specifically, Hep G2 cells were cultivated in a Dulbecco modified Eagles's medium (DMEM) containing 10% fetal calf serum (FCS), 100 units/ml penicillin, and 100 μg/ml streptomycin on a 96-well plate. Thereafter, the medium was replaced by DMEM containing 1% bovine serum albumin. At the same time, the test compound was added to a final concentration of 1 μM, followed by cultivation, or cultivation was carried out without the addition of the test compound. Three hours after the replacement of the medium, acetic acid was added to a final concentration of 1 mM, and cultivation was continued for additional 4 hours. The amount of apolipoprotein B secreted in the supernatant of the culture thus obtained was determined by the sandwich ELISA method. Goat anti-human apolipoprotein B polyclonal antibody (CHEMICON) was used as the primary antibody, and mouse anti-human apolipoprotein B monoclonal antibody peroxydase conjugate (BIOSYS) was used as the secondary antibody.
The inhibition (%) of secretion of apolipoprotein B was calculated by the following equation.
Inhibition (%) of secretion of apolipoprotein B={1−(amount of apolipoprotein B secreted in the presence of test compound)/(amount of apolipoprotein B secreted in the absence of test compound)}×100

In series [3] the test system is ddY mice (male). The series is described as follows: Acute toxicity test in mice. As to conditions: orally administered 200 mg/kg, observed for 8 days. The format is in vivo. As for the experimental part:
(§1) Test 3: Acute Toxicity Test
(§2) For the compound prepared in Example 104, an acute toxicity test was carried out using mice and rats according to a conventional method.

Series [4] concerns wistar rats (male). Nature of the series: Acute toxicity test in rats. The format is in vivo. As to conditions: orally administered 200 mg/kg, observed for 8 days. As for the experimental part: as §1, §2

Turning to `C=CCN(CC(F)(F)F)C(=O)C1(CCCCN2CCN(c3ccc4c(c3)C(=O)N(Cc3ccccc3)CC4)CC2)c2ccccc2-c2ccccc21` [Example 102, 7-[4-[4-[9-[Allyl-(2,2,2-trifluoroethyl)carbamoyl]-9H-fluoren-9-yl]butyl]piperazin-1-yl]-2-benzyl-3,4-dihydro-2H-isoquinolin-1-one], the results for the inhibition at 1 µM in series [1] and in series [2] were 89% and 80%, respectively.
On the same counts, the results for `CC(C)N(C(=O)c1cccc(N2CCN(CCC(c3ccccc3)c3ccccc3)CC2)c1)C(C)C` [Example 5, N,N-Diisopropyl-3-[4-(3,3-diphenyl-1-propyl)piperazin-1-yl]benzamide] are 8% and 92%.
The corresponding values for `O=C1c2cc(N3CCN(CCCCC4(C(=O)NCC(F)(F)F)c5ccccc5-c5ccccc54)CC3)ccc2CCN1CC1CCCCO1` (centres unmarked) [Example 99, 2-(Tetrahydropyran-2-yl)methyl-7-[4-[4-[9-(2,2,2-trifluoroethylcarbamoyl)-9H-fluoren-9-yl]butyl]piperazin-1-yl]-3,4-dihydro-2H-isoquinolin-1-one] are 11% and at least 80%.
Turning to `O=C1c2cc(N3CCN(CCC(c4ccccc4)c4ccccc4)CC3)ncc2CCN1Cc1ccccc1` [Example 104, 2-Benzyl-7-[4-(3,3-diphenyl-1-propyl)piperazin-1-yl]-3,4-dihydro-2H-2,6-naphthyridin-1-one], the inhibition – broadly, the percentage by which the read-out fell short of the control – at 1 µM in series [1] came to 83%; in series [2] it was 84%. Also, the “Change in general conditions, such as weight, in acute toxicity test” value was “any change in general conditions, such as a change in weight, did not occur” in series [3] and “any change in general conditions, such as a change in weight, did not occur” in series [4]. Moreover, the “Survival in acute toxicity test” value in series [3] and in series [4] was “all the animals survived” each time.
For `O=c1c2cc(N3CCN(CCC(c4ccccc4)c4ccccc4)CC3)ccc2cnn1Cc1ccccc1` [Example 149, 2-Benzyl-7-[4-(3,3-diphenylpropyl)piperazin-1-yl]-2H-phthalazin-1-one], the inhibition at 1 µM in series [1] was 74%; in series [2] it was 70%.
